Results from patent US20100104675A1, “Method Of Treating Demyelinating Central Nervous System Diseases” (priority 2008, published 2010).

What was measured:
[1] = test system: PLP139-151-immunized SJL mice (EAE); assay: Actively induced EAE in PLP139-151-immunized SJL/J mice, oral treatment; format: in vivo
[2] = test system: rheumatoid arthritis patients; settings: cited from earlier work
[3] = Example 2, Table 2, TwHF 12.5 mg/kg/d from day 0, triptolide 10 μg/kg/d from day 8, oral
[4] = Example 2, TwHF 12.5 mg/kg/d, triptolide 10 μg/kg/d, vs control

CC(C)[C@]12O[C@H]1[C@@H]1O[C@]13[C@]1(O[C@H]1C[C@H]1C4=C(CC[C@@]13C)C(=O)OC4)[C@@H]2O [Triptolide, triptolide]
Duration (mean duration of disease) [1, 3]: 7.6 ± 1 days | Group score (EAE clinical score 0-6) [1, 3]: 0.88 ± 0.09 | Onset [1, 3]: 13.9 ± 0.95 | reduction in the duration of the disease [1, 4]: 26.2% | reduction in the group score [1, 4]: 52.5%

O=C(O)c1cc(/N=N/c2ccc(S(=O)(=O)Nc3ccccn3)cc2)ccc1O [sulfasalazine]
ACR20 ([2]; 24 weeks of the Phase 2 trial): 21.3% | patients with an ACR20 response ([2]; at 2 weeks): 9.8%
